This is an account of results in patent US20260062420A1, “NOVEL DPP1 INHIBITORS AND USES THEREOF” (Insmed Incorporated, priority 2022, published 2026).

The target in one experiment is DPP1 in HL-60 cells (Homo sapiens (Human), UniProt P53634). Put plainly: DPP1 Cell IC50 Assay (HL-60 cells, H-Gly-Phe-AFC substrate). The class given is cell-based. The conditions noted are these: Table 16, read-out: Cell Assay. How it is done: HL-60 cells (ATCC; Manassas, VA) were maintained in RPMI-1640 supplemented with 20% heat-inactivated FBS and 1× Antibiotic Antimycotic (Cytiva; Marlborough, MA). Media was changed every three to four days and cells were not allowed to exceed 1×10^6 cells per mL. Prior to assay, cells were collected by centrifugation at 500 rcf for 3 minutes, resuspended in PBS and counted. Cells were diluted in PBS to a concentration of 5×10^5 live cells per mL and transferred to black 96-well plates for assay, 60 μL per well. Test articles were diluted in PBS plus 0.5% DMSO, and 20 μL was added to each assay well. Compound was allowed to pre-incubate with cells with gentle shaking at 100 rpm for 60 minutes at 37° C. in a cell culture incubator maintained at 5% CO2, after which 20 μL of 500 μM H-Gly-Phe-AFC substrate (MP Biomedicals; Solon, OH) was added to each well. Plates were returned to the incubator with shaking at 100 rpm for 30 minutes, after which fluorescence was measured at Excitation/Emission 400/505 nm. % Inhibition was calculated from RFU values compared to control cell wells that received only PBS plus 0.5% DMSO. IC50 values for each compound were calculated via the XLFit (IDBS Version 5.3.1.3) Add-On to Microsoft Excel using the four parameter fit equation y=(A+((B−A)/(1+((C/x)^D)))), which appears as equation number 205 (4 Parameter Logistic Model or Sigmoidal Dose-Response Model) in XLFit.
DPP1 in HL-60 cells, sequence (P53634 25-134): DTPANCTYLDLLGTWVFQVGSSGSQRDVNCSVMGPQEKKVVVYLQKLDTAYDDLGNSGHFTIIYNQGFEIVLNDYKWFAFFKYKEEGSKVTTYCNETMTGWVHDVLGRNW
DPP1 in HL-60 cells, sequence (P53634 231-394): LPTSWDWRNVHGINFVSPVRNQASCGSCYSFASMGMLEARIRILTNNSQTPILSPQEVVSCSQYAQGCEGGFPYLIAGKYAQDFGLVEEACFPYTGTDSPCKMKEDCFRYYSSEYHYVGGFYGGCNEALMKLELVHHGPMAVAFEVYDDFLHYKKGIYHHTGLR
DPP1 in HL-60 cells, sequence (P53634 395-463): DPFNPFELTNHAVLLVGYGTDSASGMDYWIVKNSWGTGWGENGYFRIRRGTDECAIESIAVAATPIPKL

In a further experiment the target is active mouse DPP1 enzyme (Mus musculus (Mouse), UniProt P97821). Nature of the experiment: Mouse DPP1 Enzyme IC50 Assay. The conditions noted are these: mouse DPP1 enzyme; Table 16; read-out: IC50, nM; Mouse. The class given is biochemical. As to the method:
Test articles were applied to active mouse DPP1 enzyme (R&D Systems; Minneapolis, MN) in Assay Buffer (50 mM MES pH 5.5, 50 mM NaCl, 5 mM DTT) in a total reaction volume of 125 μL. 25 μL of compound in Assay Buffer plus 5% DMSO was first added to 50 μL of active mouse DPP1 enzyme at a concentration of 62.5 pg/μL and allowed to pre-incubate for 10 minutes at 37° C. after which 50 μL of 1000 μM H-Gly-Arg-AMC substrate (Bachem; St. Torrance, CA) was added, giving final substrate concentration of 400 μM and a final DMSO concentration of 1%. Substrate cleavage was measured for 90 minutes at 37° C., with fluorescence at Excitation/Emission 350/450 nm measured every 5 minutes. DPP1 concentration was interpolated based on its activity relative to a standard curve of recombinant active mouse DPP1 enzyme. IC50 values for each compound were calculated via the XLFit (IDBS Version 5.3.1.3) Add-On to Microsoft Excel using the four parameter fit equation y=(A+((B−A)/(1+((C/x)^D)))), which appears as equation number 205 (4 Parameter Logistic Model or Sigmoidal Dose-Response Model) in XLFit. Default constraints were used for each Parameter. IC50 was defined as the compound concentration at which 50% of enzyme activity was inhibited when compared to the no-compound control.

Experiment [1] concerns the target Recombinant human DPP1 enzyme (Homo sapiens (Human), UniProt P53634). Nature of the experiment: Human DPP1 Enzyme IC50 Assay. The note with it: human DPP1 enzyme; Table 16; read-out: IC50, nM; Human. The class given is biochemical. How it is done: Recombinant human DPP1 enzyme (R&D Systems; Minneapolis, MN) was first proteolytically processed into its mature form using recombinant human cathepsin L (R&D Systems) in a buffer consisting of 20 mM citric acid pH 4.5, 150 mM NaCl, 1 mM EDTA and 10 mM DTT. Test articles were applied to activated human DPP1 enzyme in Assay Buffer (25 mM MES pH 6.0, 50 mM NaCl, 5 mM DTT) in a total reaction volume of 125 μL. 25 μL of compound in Assay Buffer plus 5% DMSO was first added to 50 μL of activated human DPP1 enzyme at a concentration of 1 ng/μL and allowed to pre-incubate for 10 minutes at 37° C. after which 50 μL of 1000 μM H-Gly-Arg-AMC substrate (Bachem; St. Torrance, CA) was added, giving final substrate concentration of 400 μM and a final DMSO concentration of 1%. Substrate cleavage was measured for 90 minutes at 37° C., with fluorescence at Excitation/Emission 350/450 nm measured every 5 minutes. DPP1 concentration was interpolated based on its activity relative to a standard curve of activated human recombinant DPP1 enzyme. IC50 values for each compound were calculated via the XLFit (IDBS Version 5.3.1.3) Add-On to Microsoft Excel using the four parameter fit equation y={A+[(B−A)]/[1+((C/x)^D)]}, which appears as equation number 205 (4 Parameter Logistic Model or Sigmoidal Dose-Response Model) in XLFit. Default constraints were used for each Parameter.

Recombinant human DPP1 enzyme, sequence (P53634 25-134): as the sequence (P53634 25-134) above
Recombinant human DPP1 enzyme, sequence (P53634 231-394): as the sequence (P53634 231-394) above
Recombinant human DPP1 enzyme, sequence (P53634 395-463): as the sequence (P53634 395-463) above
active mouse DPP1 enzyme, sequence (P97821 25-134): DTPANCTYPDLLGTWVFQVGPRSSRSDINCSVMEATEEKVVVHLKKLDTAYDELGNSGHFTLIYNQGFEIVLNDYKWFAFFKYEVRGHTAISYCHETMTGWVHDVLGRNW
active mouse DPP1 enzyme, sequence (P97821 231-393): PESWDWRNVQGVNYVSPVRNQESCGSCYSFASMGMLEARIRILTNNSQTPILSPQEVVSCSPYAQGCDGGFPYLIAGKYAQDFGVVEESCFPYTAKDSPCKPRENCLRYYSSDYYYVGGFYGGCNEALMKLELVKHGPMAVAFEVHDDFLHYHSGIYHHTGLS
active mouse DPP1 enzyme, sequence (P97821 394-462): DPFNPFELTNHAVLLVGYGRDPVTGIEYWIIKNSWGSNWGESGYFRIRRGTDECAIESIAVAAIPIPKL

`Cn1c(=O)oc2ccc(-c3ccc(C[C@@H](C#N)NC(=O)C4CNCC45CCC5)cc3)cc21` (stereo partly drawn) [drawing 1188]: the IC50 on DPP1 in HL-60 cells stood at 60.4 nM; at active mouse DPP1 enzyme, 2080 nM; in experiment [1], 828 nM.
The matching figures for `Cn1c(=O)oc2ccc(-c3ccc(C[C@@H](C#N)NC(=O)[C@@H]4CNCCCO4)cc3F)cc21`: 10.1 nM, 218 nM and 186 nM.
With `Cn1c(=O)oc2ccc(-c3ccc(C[C@@H](C#N)NC(=O)[C@@H]4C[C@@H]5COC[C@@H]5N4)cc3)cc21` [drawing 1208], the IC50 worked out at 462 nM on DPP1 in HL-60 cells, 136 nM on active mouse DPP1 enzyme and 311 nM in experiment [1].
For the compound `Cn1c(=O)oc2ccc(-c3ccc(C[C@@H](C#N)NC(=O)C4CC5OCCC5N4)cc3)cc21` (stereo partly drawn), the IC50 was 878 nM on DPP1 in HL-60 cells, 438 nM on active mouse DPP1 enzyme and 784 nM in experiment [1].
For `Cn1c(=O)oc2ccc(-c3ccc(C[C@@H](C#N)NC(=O)[C@@H]4C[C@H]5C[C@H]5N4)cc3)cc21` [drawing 1151], the IC50 on DPP1 in HL-60 cells stood at 3.7 nM; at active mouse DPP1 enzyme it was 24 nM; in experiment [1] it was 41.1 nM.
Take `Cn1c(=O)oc2ccc(-c3ccc(C[C@@H](C#N)NC(=O)[C@@H]4C[C@@H]5COC[C@@H]5N4)c(F)c3)cc21`: the IC50 is 150 nM on DPP1 in HL-60 cells, 41.2 nM on active mouse DPP1 enzyme and 179 nM in experiment [1].
In the case of `Cn1c(=O)oc2ccc(-c3ccc(C[C@@H](C#N)NC(=O)[C@@H]4C[C@@H]5C[C@@H]5N4)cc3)cc21`, the IC50 at DPP1 in HL-60 cells came to 26 nM; on active mouse DPP1 enzyme, 131 nM; in experiment [1], 189 nM.
The matching figures for `Cn1c(=O)oc2ccc(-c3ccc(C[C@@H](C#N)NC(=O)CC4(N)CCCCC4)cc3)cc21`: 40.1 nM, 815 nM and 1100 nM.
For `N#Cc1ccc(-c2ccc(C[C@@H](C#N)NC(=O)[C@@H]3CNCCCO3)c(F)c2)cc1` [drawing 1196], in that order: 3.6 nM, 31 nM and 31.4 nM.
The matching figures for `N#Cc1ccc(-c2ccc(C[C@@H](C#N)NC(=O)[C@@H]3C[C@@H]4CCC[C@@H]4N3)c(F)c2)cc1`: 3 ± 0.4 nM, 6.5 nM and 10.1 nM.
Take `Cn1c(=O)oc2ccc(-c3ccc(CC(C#N)NC(=O)C4CNC4)c(F)c3)cc21` (stereo not drawn): the IC50 came to 508 nM on DPP1 in HL-60 cells, 647 nM at active mouse DPP1 enzyme and 432 nM in experiment [1].
